Source: US20230026437A1, “BACTERIA-ASSOCIATED VOLATILE ORGANIC COMPOUNDS” (THE STATE OF ISRAEL, MINISTRY OF AGRICULTURE & RURAL …, priority 2019, published 2023)
“Also recorded” adds a separate entry of the source.

Columns and labels:
[1] = system: Macrophomina phaseolina, Rhizoctonia solani, Pythium aphanidermatum and Sclerotinia sclerotiorum; assay: Antifungal activity of synthetic VOCs, plate assay; assay type: cell-based
Procedure: Antifungal activity of synthetic VOCs. The GC-MS identified VOCs produced by NYG5 were screened through literature for their any biological activity and the novel compound which were not tested so far were purchased as pure standard compound of the most representative VOCs from Hollan Moran Ltd., Israel. The pure synthetic compounds were tested against four different fungal pathogens (Macrophomina phaseolina, Rhizoctonia solani, […]) in small plastic petri plates. A freshly growing mycelial agar bid (4 mm) were placed in the center of PDA medium and one sterile paper disc (10 mm) were kept on the lid of the plate. After fungal inoculation, the tested compounds (10 μl for each) were placed on sterile filter disc and plates were double sealed with parafilm in inverted position having mycelium disc on the top side of the plate to check the direct effect of volatiles on mycelial growth. Three individual replicates were maintained for each treatment including control having sterile filter disc and solvent (70% ethanol) in which compounds were diluted. […] The plates were incubated at 25° C. and radial growth of fungal mycelial was measured at day interval until 3 days.

PR2 gene = assay: Effect of C3 on PR gene expression in A. thaliana (qRT-PCR); assay type: in vivo, Arabidopsis thaliana; conditions: leaves, 7 days of exposure, no direct contact
Description: (§1) Effect of 2,3-Hexanedione (C3) on PR gene expression in A. thaliana. An individual experiment was designed similarly as described above to check the effect of 2,3-Hexanedione on PR gene induction in A. thaliana. The plants were exposed with 2,3-Hexanedione in a two compartment plates for one week. After one week, leaves from individual plants of each replicate were pooled separately for RNA isolation. Total RNA was isolated from the leaf tissue of plant using RNA isolation kit (Nucleo spin RNA Plant, MACHEREY-NAGEL) according the manufacturer's instruction. Before starting the protocol, leaves were ground under liquid N2 and 100 mg of grinded tissue was used for RNA isolation. RNA quantification was done using Qubit analyzer. Purified RNA was used for cDNA synthesis using first strand Invitrogen cDNA synthesis kit according the manufacturer's instructions with […] of RNA. Synthesized cDNA was diluted to 1000 times and 10 ul aliquots were stored for gene expression analysis. The relative gene expression level of PR1, PR2, PR5 and Actin (as internal control) were quantified for C3 exposed and control plants. For qRT PCR a 20 ul reaction was programmed at 95° C. denaturation for 1 min, followed by 40 cycles of amplification at 95° C. for 5s, 60° C. for 30s, and 72° C. for 30s.

PR5 = assay: as above; assay type: in vivo, Arabidopsis thaliana; conditions: leaves, 7 days of exposure, no direct contact
Description: as §1

PR1 gene = assay: as above; assay type: in vivo, Arabidopsis thaliana; conditions: leaves, 7 days of exposure, no direct contact
Description: as §1

[2] = system: Fusarium oxysporum f sp. Cubense; assay: C3 against Fusarium oxysporum f sp. Cubense in-vitro; assay type: cell-based
[3] = system: Meloidogyne javanica larvae; assay: In-vitro nematicidal activity of 2,3-Hexanedione (C3), two-compartment plate; assay type: in vivo; conditions: 2 days of exposure, no direct contact
Description: In-vitro nematicidal activity of 2, 3-Hexanedione (C3). Nematicidal efficacy of 2,3-Hexanedione had been tested against Meloidogyne javanica larvae. M. javanica eggs were extracted from the infected root of tomato Lycopersicon esculentum using standard protocol. The experiment was set up in a two-compartment plate to test the nematicidal activity of C3 compound against M. javanica larvae. One small glass vial was placed in one-half of compartment having 300 M. javanica larvae in 1000 of 0.001 M IVIES and sterile filter disc were kept in another compartment. The discs were spot with 10 μl of different concentration (0.05 and 0.5 ppm) of C3 compound and double sealed with parafilm. Each treatment had three independent replicates with control (without any compound only sterile disc). After 2 days of incubation M. javanica were carefully washed through 30 μm sieve and allowed to pass the sieve for 3 hours. All incubations were performed in the dark at 25±1° C. Survived M. javanica were counted under microscope.

N. tabacum = assay: Effect of C3 on tobacco seedlings growth, two-compartment plate; assay type: in vivo, Nicotiana tabacum; conditions: 0.01 and 0.05 ppm, 14 days of growth
Description: Seeds of N. tabacum were placed on MS agar media in a two-compartment plate with C3 in different concentrations on a sterile paper disk on the other half of the plate without direct contact between the compartments. In the control treatments, a sterile disk with ethanol was used.

Macrophomina = assay: Effect of C3 on fungal morphology (actively growing mycelium); assay type: cell-based, Macrophomina phaseolina; conditions: C3 exposure, plate assay
Arabidopsis thaliana = assay: Effect of 2,3-Hexanedione (C3) on A. thaliana growth, two-compartment plate; assay type: in vivo; conditions: 2 weeks of exposure
Procedure: Experimental set up for evaluation of 2,3-Hexanedione (C3) effect on Arabidopsis thaliana. Plant material and seed germination. A. thaliana (Ecotype Col-1) seeds were obtained from ARO Volcani center. The seeds were surface sterilized thrice with sterile distilled water and kept at 4° C. till 48 hours for stratification in dark on moist filter paper in petri plate. After two days of stratification the seeds were placed for germination on Murashige and Skoog (MS) medium with vitamins, 3% sucrose (30 g/1), and 0.03% phytagel (pH 5.7) for 3 days at 23° C. Effect of 2,3-Hexanedione (C3) on A. thaliana growth. Effect of 2,3-Hexanedione on A. thaliana development was evaluated in-vitro conditions in a two-compartment plate assay. Uniformly germinated seeds (5) were transplanted on MS medium in one side of compartment plate and another compartment was used to place the tested compound C3 similarly with other experiments. […] The control plants were maintained without any compound in two compartment petri plates. The plants were grown under 14-hour day/10-hour night cycles at 23° C. for 2 weeks and growth parameters were observed.

[4] = system: Fusarium oxysporum spores; assay: Effect of 2,3-Hexanedione (C3) on fungal spores in liquid; assay type: cell-based
Procedure: Effect of 2, 3-Hexanedione (C3) on fungal spores in liquid. To test the effect of C3 on spore germination, fungal spores were harvested after 3 days growth of Fusarium oxysporum in Potato Dextrose Broth medium with continuous shaking at 25° C. To collect the spores, 3 days old grown mycelial in broth medium was filtered through sterilized glass wools and filtrate was centrifuged at 4000 rpm. The supernatant was discarded, and pellet was suspended in sterilized water to a dilution of 10^6 (spores/ml) and counted through hemocytometer. Spore inhibition test was performed in 1.5 ml Eppendorf tube having 100 μl of 5×10^5 spores and mixed with a final concentration of 1 ppm, 10 ppm and 100 ppm of C3 compound. The tubes were tightly closed and sealed with parafilm and incubated at 25° C. Spore germination was observed under compound microscope by placing 20 μl of solution droplet from control and treatment on glass slide. The germination was reconfirmed by growing the 20 μl of solution from tube on PDA simultaneously to check the mycelial growth. All experiments had three individual replicates and repeated twice having identical conditions.

SMILES	effect on mycelial growth ([1]; higher concentrations, 100 and 500 ppm)	upregulation of PR2 gene transcript (PR2 gene) [fold]	PR5 at transcriptional level (PR5)	induction of PR1 gene (PR1 gene) [fold]	effect on fungi ([1]; 0.5 ppm)	effect of volatile exposure on all tested fungal pathogens ([1]; volatile exposure)	effect against the fungus ([2]; 50 ppm)	effect against the fungus ([2]; 200 ppm)	larval viability ([3]; 0.05 ppm)	nematicidal activity ([3]; 0.5 ppm) [%]	plant biomass (N. tabacum)	primary roots length (N. tabacum)	effect on actively-growing mycelia (Macrophomina)	effect on plant growth parameters (Arabidopsis thaliana; 0.005 ppm and 0.5 ppm)	effect on plant growth (Arabidopsis thaliana; 0.05 ppm)	germination of spores ([4]; 1 ppm in liquid, at least for 3 days)	growth of treated spores on PDA medium ([4]; C3-treated spores plated on PDA)
CC(=O)CCC(C)C [Compound C2, 5-Methyl-2-hexanone]	inhibitory effect	–	–	–	–	–	–	–	–	–	–	–	–	–	–	–	–
CCCC(=O)C(C)=O [Compound C3, 2,3-Hexanedione]	–	5	no significant difference	3	lethal	fungicidal effect	inhibitory effect	lethal effect	significantly reduced	80	significantly enhanced	longer	mycelium growth inhibition	did not show any effect	enhanced the growth; also recorded: significant increase	no germination	no growth was observed
